In brackets after ≈: the same amount, converted by molar mass.
Legend:
Aspergillus fumigatus [1] = test: Antifungal activity against Aspergillus fumigatus RCMB 002568 assessed as diameter of inhibition zone at 1 mg/mL after 48 hrs by agar well diffusion method; assay type: functional; details: RCMB 002568, 48 h, read-out: DIZ
Escherichia coli [2] = test: Antibacterial activity against Escherichia coli RCMB 010052 assessed as diameter of inhibition zone at 1 mg/mL after 24 to 48 hrs by agar well diffusion method; assay type: functional; details: read-out: DIZ
Pseudomonas aeruginosa [3] = test: Antibacterial activity against Pseudomonas aeruginosa RCMB 010043 after 24 to 48 hrs by agar well diffusion method; assay type: functional
Aspergillus fumigatus [4] = test: Antifungal activity against Aspergillus fumigatus RCMB 002568 after 24 to 48 hrs by agar well diffusion method; assay type: functional
[5] = (§1) Cytotoxicity against human MCF7 cells assessed as decrease in cell viability after 24 hrs by MTT assay; assay type: functional, cell-based; details: MCF7, 24 h
MCF7 [6] = test: as §1; assay type: functional, cell-based
Candida albicans [7] = test: Antifungal activity against Candida albicans RCMB 005036 assessed as diameter of inhibition zone at 1 mg/mL after 24 to 48 hrs by agar well diffusion method; assay type: functional; details: read-out: DIZ
Streptococcus pneumoniae [8] = test: Antibacterial activity against Streptococcus pneumoniae RCMB 010010 assessed as diameter of inhibition zone at 1 mg/mL after 24 to 48 hrs by agar well diffusion method; assay type: functional; details: read-out: DIZ
MCF7 [9] = test: Potency index, ratio of 5-fluorouracil IC50 to test compound IC50 for human MCF7 cells; assay type: functional
Streptococcus pneumoniae [10] = test: Antibacterial activity against Streptococcus pneumoniae RCMB 010010 after 24 to 48 hrs by agar well diffusion method; assay type: functional
Escherichia coli [11] = test: Antibacterial activity against Escherichia coli RCMB 010052 after 24 to 48 hrs by agar well diffusion method; assay type: functional
Bacillus subtilis [12] = test: Antibacterial activity against Bacillus subtilis RCMB 010067 after 24 to 48 hrs by agar well diffusion method; assay type: functional
Bacillus subtilis [13] = test: Antibacterial activity against Bacillus subtilis RCMB 010067 assessed as diameter of inhibition zone at 1 mg/mL after 24 to 48 hrs by agar well diffusion method; assay type: functional; details: read-out: DIZ
Pseudomonas aeruginosa [14] = test: Antibacterial activity against Pseudomonas aeruginosa RCMB 010043 assessed as diameter of inhibition zone at 1 mg/mL after 24 to 48 hrs by agar well diffusion method; assay type: functional; details: read-out: DIZ
Candida albicans [15] = test: Antifungal activity against Candida albicans RCMB 005036 after 24 to 48 hrs by agar well diffusion method; assay type: functional

`COc1cc(NS(=O)(=O)c2ccc(NC(=S)NC3CCN(Cc4ccccc4)CC3)cc2)nc(OC)n1` showed a zone of inhibition at 1000 µg/mL (Aspergillus fumigatus [1]) of 14.2 mm, a zone of inhibition at 1000 µg/mL (Escherichia coli [2]) of 16.3 mm and an MIC (Pseudomonas aeruginosa [3]) of 500 µg/mL (≈ 921 µM). For the same compound, the MIC (Aspergillus fumigatus [4]) was 125 µg/mL (≈ 230 µM), the IC50 [5] was 1.72 µg/mL (≈ 3.17 µM) and the Activity (MCF7 [6]) was “Dose-dependent effect”. The zone of inhibition at 1000 µg/mL (Candida albicans [7]) was 12.7 mm, the zone of inhibition at 1000 µg/mL (Streptococcus pneumoniae [8]) was 17.3 mm and the “Ratio IC50” value (MCF7 [9]) was 3. For the same compound, the MIC (Streptococcus pneumoniae [10]) was 15.6 µg/mL (≈ 28.8 µM), the MIC (Escherichia coli [11]) was 62.5 µg/mL (≈ 115 µM) and the MIC (Bacillus subtilis [12]) was 7.81 µg/mL (≈ 14.4 µM). The zone of inhibition at 1000 µg/mL (Bacillus subtilis [13]) was 18.4 mm, the zone of inhibition at 1000 µg/mL (Pseudomonas aeruginosa [14]) was 8.2 mm and the MIC (Candida albicans [15]) was 125 µg/mL (≈ 230 µM).

Source: ChEMBL document CHEMBL3875150, “Biological evaluation of some new N-(2,6-dimethoxypyrimidinyl) thioureido benzenesulfonamide derivatives as potential antimicrobial and anticancer agents” (Eur J Med Chem, 2016)
